The subject of series [1] is Staphylococcus aureus str. ATCC 29213. Kind of series: Long term growth study in brain-heart infusion medium. Format: cell-based. On the procedure: (§1) Staphylococcus aureus str. ATCC 29213 was grown as shake-tubes in brain-heart infusion medium supplemented with liptin and culture densities were measured by turbidity (FIG. 13A). At 0.5 μM 3e, there was an 8-h lag phase before culture density began to increase, which was not seen without addition of liptin 3e. Further, the growth rate was substantially lower over the next 12 h as culture density approached that of controls. Lag phases were on the order of days to weeks at liptin concentrations of ≥1.5 μM, and slow recovery followed. […] Growth of Escherichia coli str. […] Our novel antibacterial compounds attack plasma membranes through a less specific mode of action, which may avoid the pitfalls that lead to antibiotic resistance.

The test system of series [2] is Escherichia coli str. MC4100. The series is described as above. The format is cell-based. On the procedure: as §1
For series [3], the system named is Red blood cells (RBCs). Put plainly: Erythrocyte toxicity, hemoglobin release at 414 nm. The format is cell-based. The following applies: 2.5-5 μM, 30 minutes, 37° C. On the procedure:
Toxicity of liptin 3e to eukaryotic erythrocytes was assessed by UV/Visible spectroscopy, whereby the change in absorbance at 414 nm was used to quantify the release of hemoglobin, where 100% hemolysis was measured by adding 1% Triton X-100 detergent. Red blood cells (RBCs) were suspended in a buffer of 25 mM TRIS and 1.5 mM dihydrogenphosphate anion (serum inorganic phosphate levels). To the RBCs samples was added differing concentration of 3e—2.5 μM, 5 μM, 7.5 μM, and 10 μM, as well as control containing no 3e, and after 30 minutes incubation and gentle shaking at 37° C. spectra were obtained.

Series [4] concerns E. coli (MC4100). Kind of series: Bactericidal (MBC) experiment, LB plates. Format: cell-based. The settings on record: overnight culture then LB plate 16 hours. On the procedure: (§2) Cultures (5 mL) starting at 0.001 OD were grown overnight at 37° C. with different concentrations of […], and then a sample of culture was added to an LB plate and then it was incubated for 16 hours at 37° C. […] All experiments were done in triplicate, including control.

Series [5] concerns S. aureus (33186). Kind of series: Bactericidal (MBC) experiment, LB plates. The settings on record: 5 μM, overnight culture then LB plate 16 hours. The format is cell-based. On the procedure:
as §2

Series [6] relates to E. feucalis (29213). Kind of series: Bactericidal (MBC) experiment, LB plates. The format is cell-based. The following applies: overnight culture then LB plate 16 hours. On the procedure: as §2
Series [7] is described as follows: FCS binding of liptin to PG at the membrane interface (liposomes, surfactant vesicles). On the procedure: The porphyrin 3e was used to examine the liptin's affinity and selectivity for PG when PG was present as part of a membrane bilayer. In this example, fluorescence correlation spectroscopy (FCS) was used to measure the fraction of liptin bound to surfactant vesicles or liposomes containing a known amount of PG. This approach is fast, reliable and accurate, and is possible when the liptin is a stable fluorophore, as in the case of 3e.
FCS results are evaluated by treating the time dependent fluorescence intensity acquired from a dilute solution of the liptin using a focused laser beam as the excitation source. Temporal fluctuations in the fluorescence intensity are a result of the diffusion of the liptin through the focused laser beam. When the liptin binds to a vesicle, its apparent diffusion coefficient decreases by two orders of magnitude.
FIG. panels 9A and 9C contain examples of autocorrelation decays for liptin 3e in with liposomes (FIG. 9A) and surfactant vesicles (FIG. 9C) containing varying amounts of PG. Specifically, FIG. 9 illustrates an autocorrelation analysis of liptin 3e binding to PG-doped membranes of liposomes and positively-charged surfactant vesicles. A) Autocorrelation decays for liptin with varying percentages of PG in PE liposome. B) Binding constant values as a function of PS and PG in PE liposome. C) Autocorrelation decays for liptin with varying percentages of PG in positively-charged surfactant vesicles. D) Binding constant of liptin with varying percentages of PG in positively-charged surfactant vesicles. […] In FIGS. 9A and 9C, the markers are the experimental data and the solid lines are the fits that determine the fraction of liptin bound, f. This quantity is then used to calculate the binding constant:
[formula] where [R] is the total concentration of […], and it has been assumed that half of the PG is located on the membrane inner leaflet and thus not available for binding.

Series [8] is described as follows: Water solubility. Format: physicochemical. The settings on record: TFA counterions. From the text: Route 1 involves reductive amination of the uncharged glycine picket with an aldehyde. Route 2 involves amidation of the meso-phenylamines via addition of chloroacetyl chloride followed by the SN2 addition of amines to the resultant alkyl chloride (examples of alkyl, polyether, or benzyl amines are shown in Scheme 1). Route 2 is capable of furnishing a more diverse set of pickets, and modeling has shown that the use of the aryl amines shown in Scheme 1 would position their phenolic OH groups to allow for hydrogen bonding with the lipid's fatty acid ester groups. At the present time, porphyrins 3f-h have been furnished using Route 2. Route 3 involves the transformation of the meso-phenylamines into phenylisocyanates, followed by the addition of a substituted hydrazine (prepared from an aldehyde and hydrazine to form the hydrazone followed by reductive amination or with commercially available hydrazines) to furnish a semicarbazide group whose nitrogen can be charged (FIG. 6). The urea portion of the semicarbazide would provide additional strong hydrogen-bonding sites for the glycerol hydroxyl groups.

Series [9] concerns Enterococcus faecalis 29213. Put plainly: MIC in LB culture. Format: cell-based. On the procedure:
Strep fuecalis (aka Enterococcus faecalis 29213) cultures were prepared the same way as S. aureus, and analyzed as above. […] The OD600 of the control was 0.72. […] See photos for visual representation. See FIG. 11D for a visual image of the S. fuecalis cultures.

Series [10] in a line: Liptin-PG binding in solution (ITC and/or 1H NMR titration). The settings on record: ITC; 50% DMSO, 45% CHCl3, 5% CH3OH. On the procedure:
The lipid binding ability of liptins 1-3 (FIG. 2A) have been investigated in solution using isothermal titration calorimetry (ITC) and/or ^1H NMR. Stoichiometry of binding was accomplished with Job plots using ^1H NMR. […] The use of organic solvents allowed the determination of binding motif using ^1H NMR.
Liptins 1b, 1e, 2c, 2d, 3a, 3c in DMF/5% CHCl3; 3e in 50% DMSO, 45% CHCl3, 5% CH3OH.
Liptins 1h and 1i 40% DMSO, 60% CHCl3, 3f in 20% DMSO, 80% CHCl3.

`NCC(=O)Nc1ccccc1-c1c2nc(c(-c3ccccc3NC(=O)CN)c3ccc([nH]3)c(-c3ccccc3NC(=O)CN)c3nc(c(-c4ccccc4NC(=O)CN)c4ccc1[nH]4)C=C3)C=C2.O=C(O)C(F)(F)F.O=C(O)C(F)(F)F.O=C(O)C(F)(F)F.O=C(O)C(F)(F)F` [Liptin 3e] displayed a lag phase in series [1] (0.5 μM) of 8 h. In addition, the figures for the lag phases result in [1] (≥1.5 μM), in series [2] (1.5 μM) and in series [2] (10 μM) were “days to weeks”, 8 h and “greater than 24 h”, respectively. Moreover, in series [3], the “damage to red blood cells (hemolysis)” value is listed as 4.5-11%. The “MBC (concentration with low or no growth on LB plates)” value in series [4] and in series [6] was “much more than four times the MIC concentrations” each time. In addition, the bactericidal effect entry in series [5] is recorded as “strong bactericidal effects”. Besides, the “PG binding affinities at the membrane interface” value in [7] (FCS) is ~10^4 M^−1. In addition, the Ka in series [7] (Lipid vesicles containing 10-30% PG) is 10^4; in [10] it was 2800 M⁻¹. The “selectivity of binding PG vs phosphatidylserine (PS)” value in series [7] (lipid vesicles of binary mixtures of PG or PS with PE) was “selective for PG over the PS”. Besides, the “binding to surfactant vesicle without PG” value in series [7] (no PG, only anionic component sodium dodecylbenzenesulfonate (SDBS)) was “Negligible binding”. This compound had a binding constant in series [7] (surfactant vesicle with 1% of PG and 35% SDBS) of 47000 M⁻¹. In addition, in series [8], the water solubility result is on record as “quite water soluble”. Also, the “effect on bacterial growth” value in series [9] is on record as “inhibits bacterial growth”.
